The record followed here is patent US20230416298A1, “PRODRUGS OF NEUROACTIVE STEROIDS” (Brii Biosciences, Inc., priority 2020, published 2023).

Series [1] can be described thus: Plasma stability. In kind it is in vitro ADME. The following applies: 37° C.; for Stability in Human Plasma Formation of parent compound: 2 μM, Yes/No; for half-life at 2 μM: pooled plasma, pH 7.4, human plasma, time points 0, 10, 30, 60 and 120 min. How it is done:
The pooled frozen plasma was thawed in a water bath at 37° C. prior to experiment. Plasma was centrifuged at 4000 rpm for 5 min and the clots were removed if any. The pH will be adjusted to 7.4±0.1 if required.
Preparation of test compounds and positive control (propantheline bromide): 1 mM intermediate solution was prepared by diluting 10 μL of the stock solution with 90 μL MeOH; 1 mM intermediate of positive control Propantheline was prepared by diluting 10 μL of the stock solution with 90 μL ultrapure water. 100 μM dosing solution was prepared by diluting 20 μL of the intermediate solution (1 mM) with 180 μL MeOH. 98 μL of blank plasma was spiked with 2 μL of dosing solution (100 μM) to achieve 2 μM of the final concentration in duplicate and samples were incubated at 37° C. in a water bath. At each time point (0,10, 30, 60 and 120 min), 400 μL of stop solution (0.1% FA in MeOH containing 200 ng/mL tolbutamide and 200 ng/mL Labetalol) was added to precipitate protein and mixed thoroughly. Centrifuged sample plates at 4,000 rpm for 10 min. An aliquot of supernatant (100 μL) was transferred from each well to another plates.
Data analysis: The % remaining of test compound after incubation in plasma was calculated using following equation:
% Remaining=[…]×(PAR at appointed incubation time/PAR at T0 time)
where PAR is the peak area ratio of analyte versus internal standard (IS) (LC/MS/MS mobile phase condition: 0.1% Formic Acid in Water/0.1% Formic Acid in Acetonitrile. The appointed incubation time points are TO (0 min), Tn (n=0, 10, 30, 60, 120 min).

A short description of series [2]: Liver S9 stability. The following applies: human liver S9, 37° C.; for half-life at 1 μM: time points up to 60 min; for Stability in Human Liver S9 Formation of parent compound: Yes/No. Format: in vitro ADME. How it is done: Intermediate solution: Dilute 5 μL of compounds or controls (7-ethoxycoumarin) from stock solution (10 mM) with 495 μL MeOH (Conc.: 100 μM, 1% DMSO, 99% MeOH). Stop solution: Cold ACN (including 100 ng/mL Tolbutamide and Labetalol as internal standard). Add 2 μL test compound or control working solution/well to all plates (T0, T5, T10, T20, T30, T60, NCF60) except matrix blank. Add 600 μL/well stop solution (cold in 4° C., including 100 ng/mL Tolbutamide/100 ng/mL Labetalol) to terminate the TO plate, then put it on ice. Dispense 840 μL/well S9 solution to 96-well plate as reservoir according to plate map. Then add 100 μL/well to every plate by Apricot. Incubate S9 solution and compound at 37° C. for about 10 min except NCF60 and TO. After adding S9 solution and 98 μ LPB buffer to NCF60, incubate at 37° C. without pre-warming, start timer 1. After 60 min, add 600 μL/well stop solution to terminate the reaction. After pre-warming, dispense 760 μL/well cofactor solution to 96-well plate as reservoir according to plate map. Then add 98 μL/well to every plate by Apricot to start reaction. Incubate at 37° C., start timer 2, Add 600 μL/well stop solution (cold in 4° C., including 100 ng/mL Tolbutamide and Labetalol) to terminate the reaction. Samples are centrifuged at 4000 rpm for 20 min. While centrifuging, load 8×new 96-well plate with 300 μL HPLC water, then transfer 100 μL supernatant, mix with water for LC/MS/MS, transferred to Bioanalytical Services for LC-MS/MS analysis. Use equation of first order kinetics to calculate t1/2 and CL: Equation of first order kinetics: […]

A value given as a limit tells only on which side of the number the result lay.

Broadly, the half-life is the time needed for the level to fall by half in the phase considered. `CC(=O)OCCCC(C)C(=O)O[C@@H]1CC[C@@]2(C)[C@@H](CC[C@@H]3[C@@H]2CC[C@]2(C)[C@@H](C(C)=O)CC[C@@H]32)C1` (stereo partly drawn) [Example 17, [(3R,5S,8R,9S,10S,13S,14S,17S)-17-acetyl-10,13-dimethyl-2,3,4,5,6,7,8,9,11,12,14,15,16,17-tetradecahydro-1H-cyclopenta[a]phenanthren-3-yl]5-acetoxy-2-methyl-pentanoate]: in series [1], the “Stability in Human Plasma Formation of parent compound” value (“Stability in Human Plasma Formation” for short) is “No” and the half-life at 2 μM fell in the range of 50 to 200 min. In series [2], the half-life at 1 μM is < 50 min and the “Stability in Human Liver S9 Formation of parent compound” value (from here on “Stability in Human Liver S9 Formation”) was “No”.
Take `CC(=O)OCCCC(=O)O[C@@H]1CC[C@@]2(C)[C@@H](CC[C@@H]3[C@@H]2CC[C@]2(C)[C@@H](C(C)=O)CC[C@@H]32)C1` [Example 14, [(3R,5S,8R,9S,10S,13S,14S,17S)-17-acetyl-10,13-dimethyl-2,3,4,5,6,7,8,9,11,12,14,15,16,17-tetradecahydro-1H-cyclopenta[a]phenanthren-3-yl]4-acetoxybutanoate]: in series [1], the “Stability in Human Plasma Formation” value is recorded as “No” and the half-life at 2 μM is 50 to 200 min. In series [2], the half-life at 1 μM is < 50 min and the “Stability in Human Liver S9 Formation” value was “No”.
On to `CC(=O)[C@H]1CC[C@H]2[C@@H]3CC[C@H]4C[C@H](OC(=O)NCCOC(=O)C(C)C)CC[C@]4(C)[C@H]3CC[C@]12C` [Example 22, 2-[[(3R,5S,8R,9S,10S,13S,14S,17S)-17-acetyl-10,13-dimethyl-2,3,4,5,6,7,8,9,11,12,14,15,16,17-tetradecahydro-1H-cyclopenta[a]phenanthren-3-yl]oxycarbonylamino]ethyl 2-methylpropanoate], for which, in series [1], the “Stability in Human Plasma Formation” value is reported as “No” and the half-life at 2 μM was > 200 min. Besides, in series [2], the half-life at 1 μM was < 50 min and the “Stability in Human Liver S9 Formation” value is given as “Yes”.
`CC(=O)[C@H]1CC[C@H]2[C@@H]3CC[C@H]4C[C@H](OC(=O)CC5CCCC5)CC[C@]4(C)[C@H]3CC[C@]12C` [Example 8, [(3R,5S,8R,9S,10S,13S,14S,17S)-17-acetyl-10,13-dimethyl-2,3,4,5,6,7,8,9,11,12,14,15,16,17-tetradecahydro-1H-cyclopenta[a]phenanthren-3-yl] 3-cyclopentylacetate]: in series [1], the “Stability in Human Plasma Formation” value is “No” and the half-life at 2 μM was > 200 min. In series [2], the half-life at 1 μM is < 50 min and the “Stability in Human Liver S9 Formation” value is on record as “No”.
In the case of `CCCCCCC(=O)O[C@@H]1CC[C@@]2(C)[C@@H](CC[C@@H]3[C@@H]2CC[C@]2(C)[C@@H](C(C)=O)CC[C@@H]32)C1` [Example 2, [(3R,5S,8R,9S,10S,13S,14S,17S)-17-acetyl-10,13-dimethyl-2,3,4,5,6,7,8,9,11,12,14,15,16,17-tetradecahydro-1H-cyclopenta[a]phenanthren-3-yl]heptanoate], in series [1], the “Stability in Human Plasma Formation” value was “No” and the half-life at 2 μM is > 200 min. Also, in series [2], the half-life at 1 μM was < 50 min and the “Stability in Human Liver S9 Formation” value is reported as “No”.
Take `CC(=O)[C@H]1CC[C@H]2[C@@H]3CC[C@H]4C[C@H](OC(=O)OCCN(C)C(=O)C(C)C)CC[C@]4(C)[C@H]3CC[C@]12C` [Example 25, (3R,5S,8R,9S,10S,13S,14S,17S)-17-acetyl-10,13-dimethylhexadecahydro-1H-cycl penta[a]phenanthren-3-yl(2-(N-methylisobutyramido)ethyl) carbonate]: in series [1], the “Stability in Human Plasma Formation” value is given as “No” and the half-life at 2 μM is > 200 min. Besides, in series [2], the half-life at 1 μM was < 50 min and the “Stability in Human Liver S9 Formation” value is on record as “No”.
As to `CC(=O)[C@H]1CC[C@H]2[C@@H]3CC[C@H]4C[C@H](OC(=O)OCCNC(=O)C(C)C)CC[C@]4(C)[C@H]3CC[C@]12C` [Example 24, [(3R,5S,8R,9S,10S,13S,14S,17S)-17-acetyl-10,13-dimethyl-2,3,4,5,6,7,8,9,11,12,14,15,16,17-tetradecahydro-1H-cyclopenta[a]phenanthren-3-yl] 2-(2-methylpropanoylamino)ethyl carbonate)], in series [1], the “Stability in Human Plasma Formation” value is on record as “No” and the half-life at 2 μM is > 200 min. Besides, in series [2], the half-life at 1 μM is < 50 min and the “Stability in Human Liver S9 Formation” value is “No”.
As for `COC(=O)N(C)CCOC(=O)O[C@@H]1CC[C@@]2(C)[C@@H](CC[C@@H]3[C@@H]2CC[C@]2(C)[C@@H](C(C)=O)CC[C@@H]32)C1` [Example 27, [(3R,5S,8R,9S,10S,13S,14S,17S)-17-acetyl-10,13-dimethyl-2,3,4,5,6,7,8,9,11,12,14,15,16,17-tetradecahydro-1H-cyclopenta[a]phenanthren-3-yl]2-(methoxycarbonyl-N-methylamino)ethyl carbonate], in series [1], the “Stability in Human Plasma Formation” value is “No” and the half-life at 2 μM is > 200 min. Besides, in series [2], the half-life at 1 μM is < 50 min and the “Stability in Human Liver S9 Formation” value is on record as “Yes”.
Take `CC(=O)[C@H]1CC[C@H]2[C@@H]3CC[C@H]4C[C@H](OC(=O)OCCOC(=O)C(C)C)CC[C@]4(C)[C@H]3CC[C@]12C` [Example 19, 2-[[(3R,5S,8R,9S,10S,13S,14S,17S)-17-acetyl-10,13-dimethyl-2,3,4,5,6,7,8,9,11,12,14,15,16,17-tetradecahydro-1H-cyclopenta[a]phenanthren-3-yl]oxycarbonyloxy]ethyl 2-methylpropanoate]: in series [1], the “Stability in Human Plasma Formation” value is given as “No” and the half-life at 2 μM was in the range of 50 to 200 min. In series [2], the half-life at 1 μM was < 50 min and the “Stability in Human Liver S9 Formation” value is on record as “Yes”.
For `CC(=O)[C@H]1CC[C@H]2[C@@H]3CC[C@H]4C[C@H](OC(=O)CCCOC(=O)C(C)C)CC[C@]4(C)[C@H]3CC[C@]12C` [Example 15, [(3R,5S,8R,9S,10S,13S,14S,17S)-17-acetyl-10,13-dimethyl-2,3,4,5,6,7,8,9,11,12,14,15,16,17-tetradecahydro-1H-cyclopenta[a]phenanthren-3-yl]4-(2-methylpropanoyloxy)butanoate], in that order: “No”, 50 to 200 min, < 50 min and “No”.
As for `CCCCCC(=O)O[C@@H]1CC[C@@]2(C)[C@@H](CC[C@@H]3[C@@H]2CC[C@]2(C)[C@@H](C(C)=O)CC[C@@H]32)C1` [Example 1, [(3R,5S,8R,9S,10S,13S,14S,17S)-17-acetyl-10,13-dimethyl-2,3,4,5,6,7,8,9,11,12,14,15,16,17-tetradecahydro-1H-cyclopenta[a]phenanthren-3-yl]hexanoate], in series [1], the “Stability in Human Plasma Formation” value was “No” and the half-life at 2 μM is > 200 min. Besides, in series [2], the half-life at 1 μM was < 50 min and the “Stability in Human Liver S9 Formation” value is on record as “No”.
Take `CC(=O)[C@H]1CC[C@H]2[C@@H]3CC[C@H]4C[C@H](OC(=O)OCc5oc(=O)oc5C)CC[C@]4(C)[C@H]3CC[C@]12C` [Example 20, [(3R,5S,8R,9S,10S,13S,14S,17S)-17-acetyl-10,13-dimethyl-2,3,4,5,6,7,8,9,11,12,14,15,16,17-tetradecahydro-1H-cyclopenta[a]phenanthren-3-yl](5-methyl-2-oxo-1,3-dioxol-4-yl)methyl carbonate]: in series [1], the “Stability in Human Plasma Formation” value is “Yes” and the half-life at 2 μM is < 50 min. In series [2], the half-life at 1 μM is < 50 min and the “Stability in Human Liver S9 Formation” value is “Yes”.
